Measured values from patent US20240122847A1, “ORAL POLYPEPTIDE FORMULATIONS” (Bhami's Research Laboratory, Pvt. Ltd., priority 2022, published 2024).
Where two headings read alike, the source gives them in different places.

Tests used:
[1] = test system: serum calcium, serum phosphorous and alkaline phosphatase; test: Pharmacodynamics of PTH in Yorkshire pigs; assay type: in vivo; set-up: sCa / sP / sALP: unit not given here; details: for sCa / sP / sALP: Yorkshire pigs, Subcutaneous (40 μg)
Description: (§1) The serum calcium and serum phosphorous were estimated using Siemen's […] 744 Electrolyte Analyzer and for serum ALP Siemen's Dimension Expand Plus was used.
The pharmacodynamics data in subcutaneous and buccal/Sublingual groups are shown in Tables 21 and 22 and in FIGS. 63 and 64.

[2] = minipig, in vivo
Description: Pharmacokinetic analysis was conducted in Female Minipigs weighing 12±1 kg for 2 days. Pigs in the oral treatment group was either fasted overnight or fed prior to the test sample administration. All the test animals in the treatment groups were administered with respective test formulation to the pre-designated animals. The animal was restrained and its head was held vertically, the jaws were pulled away, the tongue was gently lifted with a forceps followed by placement of a polypeptide formulation as described herein buccally/sublingually. After placing a polypeptide formulation as described herein, the snout was held together for about 1-2 mins to prevent the chewing of the polypeptide formulation. The time of dosage of each animal was noted. Blood samples were collected at aforementioned time points 0 min, 5 min, 30 min, 1 hour, 2 hours, 4 hours, 8 hours, and 24 hours into an EDTA-blood collection tubes for the separation of plasma to determine PTH (1-34) levels by ELISA. Plasma samples collected at different time points were analyzed by ELISA kit according to Creative Diagnostics protocol. This kit is based on sandwich enzyme-linked immuno-sorbent assay technology. An antibody, anti-PTH (1-34) was pre-coated onto a 96-well plate. Standards, test samples, and biotin-conjugated reagent were added to the wells and incubated. The HRP-conjugated reagent was then added, and the whole plate was incubated. Unbound conjugates were removed using wash buffer at each stage. TMB substrate was used to quantify the HRP enzymatic reaction. After TMB substrate was added, only wells that contain sufficient PTH (1-34) will produce a blue colored product, which then changes to yellow after adding the acidic stop solution. The intensity of the yellow color is proportional to the PTH (1-34) amount bound on the plate. The Optical Density (OD) was measured spectrophotometrically at 450 nm in a microplate reader, from which the concentration of PTH (1-34) can be calculated.
(§2) PTH (1-34) was analyzed in plasma using a specific enzyme linked immunosorbent assay (ELISA). Pharmacokinetic endpoints were determined using noncompartmental methods using PK Solutions software. AUC was approximated using the trapezoidal rule on the observed concentrations. C max for each PTH (1-34) dose was derived as the maximum of all valid concentrations, and t max was then determined as the corresponding time point to C max. The terminal elimination rate constant (λz) was estimated by log-linear regression on the terminal part of the concentration-time curve, and t ½ was then calculated as t ½=ln 2/λz.

[3] = rat, in vivo, sc, 0.04 mg
Description: Pharmacokinetic analysis was conducted in female rats weighing 220-250 grams for 2 days. Rats in the oral treatment group was either fasted overnight or fed prior to the test sample administration. All the test animals in the treatment groups were administered with respective test formulation to the pre-designated animals. The animal was restrained and its head was held vertically, the jaws were pulled away, the tongue was gently lifted with a forceps followed by placement of a polypeptide formulation as described herein buccally/sublingually. After placing a polypeptide formulation as described herein, the snout was held together for about 1-2 mins to prevent the chewing of the polypeptide formulation. The time of dosage of each animal was noted. Blood samples were collected at aforementioned time points 0 min, 15 min, 30 min, 1 hour, 2 hours, 4 hours, 8 hours, 12 hours, 24 hours, and 48 hours into an EDTA-blood collection tubes for the separation of plasma to determine PTH (1-34) levels by ELISA. Plasma samples collected at different time points were analyzed by ELISA kit according to Creative Diagnostics protocol. This kit is based on sandwich enzyme-linked immuno-sorbent assay technology. An antibody, anti-PTH (1-34) was pre-coated onto a 96-well plate. Standards, test samples, and biotin-conjugated reagent were added to the wells and incubated. The HRP-conjugated reagent was then added, and the whole plate was incubated. Unbound conjugates were removed using wash buffer at each stage. TMB substrate was used to quantify the HRP enzymatic reaction. After TMB substrate was added, only wells that contain sufficient PTH (1-34) will produce a blue colored product, which then changes to yellow after adding the acidic stop solution. The intensity of the yellow color is proportional to the PTH (1-34) amount bound on the plate. The Optical Density (OD) was measured spectrophotometrically at 450 nm in a microplate reader, from which the concentration of PTH (1-34) can be calculated.
as §2

[4] = Summary of bioavailability of the formulations of the Examples compared to SC or IV; details: plasma, other: buccal/sublingual
[5] = test system: serum calcium, serum phosphorous and alkaline phosphatase; test: Pharmacodynamics of PTH in rats; assay type: in vivo, SD rats; set-up: sCa (serum calcium): unit not given here; details: for sALP (serum alkaline phosphatase) / sCa (serum calcium) / sP (serum phosphorous): subcutaneous 40 μg
Description: as §1
The pharmacodynamics data in subcutaneous and buccal/Sublingual groups of rats are shown in Tables 27 and 28 and in FIGS. 67 and 68.

CC[C@H](C)[C@H](NC(=O)[C@H](CCC(=O)O)NC(=O)[C@H](CO)NC(=O)[C@@H](NC(=O)[C@@H](N)CO)C(C)C)C(=O)N[C@@H](CCC(N)=O)C(=O)N[C@@H](CC(C)C)C(=O)N[C@@H](CCSC)C(=O)N[C@@H](Cc1cnc[nH]1)C(=O)N[C@@H](CC(N)=O)C(=O)N[C@@H](CC(C)C)C(=O)NCC(=O)N[C@@H](CCCCN)C(=O)N[C@@H](Cc1cnc[nH]1)C(=O)N[C@@H](CC(C)C)C(=O)N[C@@H](CC(N)=O)C(=O)N[C@@H](CO)C(=O)N[C@@H](CCSC)C(=O)N[C@@H](CCC(=O)O)C(=O)N[C@@H](CCCN=C(N)N)C(=O)N[C@H](C(=O)N[C@@H](CCC(=O)O)C(=O)N[C@@H](Cc1c[nH]c2ccccc12)C(=O)N[C@@H](CC(C)C)C(=O)N[C@@H](CCCN=C(N)N)C(=O)N[C@@H](CCCCN)C(=O)N[C@@H](CCCCN)C(=O)N[C@@H](CC(C)C)C(=O)N[C@@H](CCC(N)=O)C(=O)N[C@@H](CC(=O)O)C(=O)N[C@H](C(=O)N[C@@H](Cc1cnc[nH]1)C(=O)N[C@@H](CC(N)=O)C(=O)N[C@@H](Cc1ccccc1)C(=O)O)C(C)C)C(C)C [PTH (1-34)]
sCa ([1]; 0.08 h): 9.65 ± 0.77 | sP ([1]; 0.08 h): 10.52 ± 0.17 | sALP ([1]; 0.5 h): 134.5 ± 17.67 | sCa ([1]; 0.5 h): 9.95 ± 0.49 | sP ([1]; 0.5 h): 9.8 ± 0.28 | sALP ([1]; 1 h): 158 ± 38.18 | sCa ([1]; 1 h): 10.4 ± 0.14 | sP ([1]; 1 h): 9 ± 0.84 | sALP ([1]; 2 h): 152.5 ± 36.06 | sCa ([1]; 2 h): 10.3 ± 0.14 | sP ([1]; 2 h): 10.25 ± 1.06 | sALP ([1]; 4 h): 141.5 ± 33.23 | sCa ([1]; 4 h): 9.9 ± 0.42 | sP ([1]; 4 h): 11 ± 0 | sALP ([1]; 8 h): 133.5 ± 23.33 | sCa ([1]; 8 h): 9.5 ± 0.28 | sP ([1]; 8 h): 11.4 ± 0.28 | sALP ([1]; 24 h): 114.5 ± 3.53 | sCa ([1]; 24 h): 9.4 ± 0.28 | sP ([1]; 24 h): 11.6 ± 0.28 | PD effect on serum calcium, serum phosphorous and serum alkaline phosphatase ([1]; pigs, PTH given by buccal/sublingual route): clearly indicates the effect on serum calcium, serum phosphorous and serum alkaline phosphatase | AUC 0-inf/D_obs ([2]; 0.49 mg): 13610.915 pg·h/mL/mg | AUC 0-inf/D_pred ([2]; 0.49 mg): 13604.805 pg·h/mL/mg | AUC 0-t/0-inf_obs ([2]; 0.49 mg): 0.996 | AUC 0-t/0-inf_pred ([2]; 0.49 mg): 0.997 | Clast_obs/Cmax ([2]; 0.49 mg): 0.005 | Clast_pred/Cmax ([2]; 0.49 mg): 0.005 | AUC 0-inf/D_obs ([2]; sc, 0.04 mg): 240.561 pg·h/mL/µg | AUC 0-inf/D_pred ([2]; sc, 0.04 mg): 240.495 pg·h/mL/µg | AUC 0-t/0-inf_obs ([2]; sc, 0.04 mg): 0.996 | AUC 0-t/0-inf_pred ([2]; sc, 0.04 mg): 0.996 | Cl/F_obs ([2]; sc, 0.04 mg): 0.004 (μg)/(pg/mL)/h | Cl/F_pred ([2]; sc, 0.04 mg): 0.004 (μg)/(pg/mL)/h | Clast_obs/Cmax ([2]; sc, 0.04 mg): 0.002 | Clast_pred/Cmax ([2]; sc, 0.04 mg): 0.002 | Vz/F_obs ([2]; sc, 0.04 mg): 0.027 (μg)/(pg/mL) | Vz/F_pred ([2]; sc, 0.04 mg): 0.027 (μg)/(pg/mL) | AUC 0-inf/D_obs [3]: 480.625 pg·h/mL/µg | AUC 0-inf/D_pred [3]: 480.502 pg·h/mL/µg | Cl/F_obs [3]: 0.002 (μg)/(pg/mL)/h | Cl/F_pred [3]: 0.002 (μg)/(pg/mL)/h | Vz/F_obs [3]: 0.013 (μg)/(pg/mL) | Vz/F_pred [3]: 0.013 (μg)/(pg/mL) | bioavailability [4]: > 7% | PD effect on serum calcium, serum phosphorous and serum alkaline phosphatase ([5]; PTH given by buccal/sublingual route): clearly indicates the effect on serum calcium, serum phosphorous and serum alkaline phosphatase | sALP (serum alkaline phosphatase) ([5]; time 0 hours): 98.5 ± 33.23 | sCa (serum calcium) ([5]; time 0 hours): 9.05 ± 0.07 | sP (serum phosphorous) ([5]; time 0 hours): 9.3 ± 0.28 | sALP (serum alkaline phosphatase) ([5]; time 0.08 hours): 131 ± 1.41 | sCa (serum calcium) ([5]; time 0.08 hours): 9.65 ± 0.77 | sP (serum phosphorous) ([5]; time 0.08 hours): 8.85 ± 0.07 | sALP (serum alkaline phosphatase) ([5]; time 0.5 hours): 136 ± 7.07 | sCa (serum calcium) ([5]; time 0.5 hours): 10.2 ± 0.28 | sP (serum phosphorous) ([5]; time 0.5 hours): 8.45 ± 0.21 | sALP (serum alkaline phosphatase) ([5]; time 1 hours): 142 ± 5.65 | sCa (serum calcium) ([5]; time 1 hours): 10.35 ± 0.35 | sP (serum phosphorous) ([5]; time 1 hours): 4.85 ± 0.91 | sALP (serum alkaline phosphatase) ([5]; time 2 hours): 184.5 ± 16.26 | sCa (serum calcium) ([5]; time 2 hours): 10.45 ± 0.35 | sP (serum phosphorous) ([5]; time 2 hours): 5.75 ± 1.06 | sALP (serum alkaline phosphatase) ([5]; time 4 hours): 151 ± 21.21 | sCa (serum calcium) ([5]; time 4 hours): 9.45 ± 0.21 | sP (serum phosphorous) ([5]; time 4 hours): 8.65 ± 0.21 | sALP (serum alkaline phosphatase) ([5]; time 8 hours): 131.5 ± 14.84 | sCa (serum calcium) ([5]; time 8 hours): 9.25 ± 0.35 | sP (serum phosphorous) ([5]; time 8 hours): 8.95 ± 0.07 | sALP (serum alkaline phosphatase) ([5]; time 24 hours): 111 ± 21.21 | sCa (serum calcium) ([5]; time 24 hours): 9.05 ± 0.21 | sP (serum phosphorous) ([5]; time 24 hours): 9.35 ± 0.07
